This passage reports Kd results from PMC11870743, “Endothelial OX40 activation facilitates tumor cell escape from T cell surveillance through S1P/YAP-mediated angiogenesis” (The Journal of Clinical Investigation, 2025).

This assay concerns the target T1, YAP (Yes 1–associated protein), purified (Homo sapiens, UniProt P46937).
T1 construct: gene YAP1; purified YAP protein
In words: microscale thermophoresis. The assay is classed as binding. To be noted: read-out: dissociation constant.

T1 sequence (P46937 whole entry): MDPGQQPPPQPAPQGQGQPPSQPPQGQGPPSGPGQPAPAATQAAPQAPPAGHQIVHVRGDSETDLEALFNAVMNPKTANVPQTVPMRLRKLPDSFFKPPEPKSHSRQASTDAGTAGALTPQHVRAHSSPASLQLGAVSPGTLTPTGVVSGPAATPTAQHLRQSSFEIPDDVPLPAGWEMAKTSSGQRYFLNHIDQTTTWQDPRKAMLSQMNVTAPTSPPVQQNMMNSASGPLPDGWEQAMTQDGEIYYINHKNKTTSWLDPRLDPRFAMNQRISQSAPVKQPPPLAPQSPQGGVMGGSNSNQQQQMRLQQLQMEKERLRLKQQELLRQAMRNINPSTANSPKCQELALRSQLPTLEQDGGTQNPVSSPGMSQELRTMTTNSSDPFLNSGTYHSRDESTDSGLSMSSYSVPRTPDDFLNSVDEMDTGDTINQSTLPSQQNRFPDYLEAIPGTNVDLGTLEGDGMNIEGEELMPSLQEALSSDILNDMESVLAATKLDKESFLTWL

For the compound `CCCCCCCCCCCCC/C=C/[C@@H](O)[C@@H](N)COP(=O)(O)O` [sphingosine 1-phosphate], the Kd is 13 µM.
